Measured values taken from ChEMBL document CHEMBL4507294, “Data for DCP probe MSD-CYP11B2” (2021).

How the values were obtained:
[1] = target: Homeodomain-interacting protein kinase 2 (Homo sapiens) (UniProt Q9H2X6); details: Compound concentration 1000.0 nM
[2] = target: Maternal embryonic leucine zipper kinase (Homo sapiens) (UniProt Q14680); details: Compound concentration 1000.0 nM
[3] = target: T1, Alpha-2B adrenergic receptor (Homo sapiens) (UniProt P18089); details: Compound concentration 10.0 uM
T1 sequence (whole entry): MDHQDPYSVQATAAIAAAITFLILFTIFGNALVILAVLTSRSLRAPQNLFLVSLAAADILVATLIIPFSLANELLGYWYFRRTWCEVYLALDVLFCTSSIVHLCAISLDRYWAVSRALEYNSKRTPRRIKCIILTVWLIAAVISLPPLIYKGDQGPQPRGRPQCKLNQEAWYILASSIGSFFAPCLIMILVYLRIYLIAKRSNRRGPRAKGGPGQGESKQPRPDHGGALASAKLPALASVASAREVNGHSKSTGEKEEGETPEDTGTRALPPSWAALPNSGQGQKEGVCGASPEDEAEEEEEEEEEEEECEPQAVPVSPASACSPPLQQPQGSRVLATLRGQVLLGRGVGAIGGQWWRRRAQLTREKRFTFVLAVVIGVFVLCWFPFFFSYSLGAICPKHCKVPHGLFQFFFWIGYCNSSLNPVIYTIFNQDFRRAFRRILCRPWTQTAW

[4] = target: Fibroblast growth factor receptor 2 (Homo sapiens) (UniProt P21802); details: Compound concentration 1000.0 nM
[5] = target: Mitogen-activated protein kinase kinase kinase 3 (Homo sapiens) (UniProt Q99759); details: Compound concentration 1000.0 nM
[6] = target: Kappa-type opioid receptor (Homo sapiens) (UniProt P41145); details: Compound concentration 10.0 uM
[7] = target: Ankyrin repeat and protein kinase domain-containing protein 1 (Homo sapiens) (UniProt Q8NFD2); details: Compound concentration 1000.0 nM
[8] = target: Serine/threonine-protein kinase WNK3 (Homo sapiens) (UniProt Q9BYP7); details: Compound concentration 1000.0 nM
[9] = target: Mitogen-activated protein kinase kinase kinase 2 (Homo sapiens) (UniProt Q9Y2U5); details: Compound concentration 1000.0 nM
[10] = test system: Epidermal growth factor receptor (Homo sapiens), P00533 [L858R]; details: Compound concentration 1000.0 nM
[11] = target: Casein kinase I isoform alpha-like (Homo sapiens) (UniProt Q8N752); details: Compound concentration 1000.0 nM
[12] = test system: Epidermal growth factor receptor (Homo sapiens), P00533 [UNDEFINED MUTATION]; details: Compound concentration 1000.0 nM
[13] = target: Insulin-like growth factor 1 receptor (Homo sapiens) (UniProt P08069); details: Compound concentration 1000.0 nM
[14] = target: Death-associated protein kinase 2 (Homo sapiens) (UniProt Q9UIK4); details: Compound concentration 1000.0 nM
[15] = target: STE20/SPS1-related proline-alanine-rich protein kinase (Homo sapiens) (UniProt Q9UEW8); details: Compound concentration 1000.0 nM
[16] = target: Calcium/calmodulin-dependent protein kinase type 1 (Homo sapiens) (UniProt Q14012); details: Compound concentration 1000.0 nM
[17] = target: Serine/threonine-protein kinase Nek4 (Homo sapiens) (UniProt P51957); details: Compound concentration 1000.0 nM
[18] = target: Rhodopsin kinase GRK7 (Homo sapiens) (UniProt Q8WTQ7); details: Compound concentration 1000.0 nM
[19] = target: Serine/threonine-protein kinase ICK (Homo sapiens) (UniProt Q9UPZ9); details: Compound concentration 1000.0 nM
[20] = target: 5-hydroxytryptamine receptor 2B (Homo sapiens, UniProt P41595); details: Compound concentration 10.0 uM
[21] = target: MAP kinase-interacting serine/threonine-protein kinase 1 (Homo sapiens) (UniProt Q9BUB5); details: Compound concentration 1000.0 nM
[22] = target: Serine/threonine-protein kinase VRK2 (Homo sapiens) (UniProt Q86Y07); details: Compound concentration 1000.0 nM
[23] = target: Mitogen-activated protein kinase 13 (Homo sapiens) (UniProt O15264); details: Compound concentration 1000.0 nM
[24] = target: Cyclin-dependent kinase-like 2 (Homo sapiens) (UniProt Q92772); details: Compound concentration 1000.0 nM
[25] = target: Mitogen-activated protein kinase kinase kinase 19 (Homo sapiens) (UniProt Q56UN5); details: Compound concentration 1000.0 nM
[26] = target: Ephrin type-A receptor 7 (Homo sapiens) (UniProt Q15375); details: Compound concentration 1000.0 nM
[27] = target: Leukocyte tyrosine kinase receptor (Homo sapiens) (UniProt P29376); details: Compound concentration 1000.0 nM
[28] = target: Receptor tyrosine-protein kinase erbB-2 (Homo sapiens) (UniProt P04626); details: Compound concentration 1000.0 nM
[29] = test system: Epidermal growth factor receptor (Homo sapiens), P00533 [L858R,T790M]; details: Compound concentration 1000.0 nM
[30] = target: LIM domain kinase 1 (Homo sapiens) (UniProt P53667); details: Compound concentration 1000.0 nM
[31] = target: Serine/threonine-protein kinase 33 (Homo sapiens) (UniProt Q9BYT3); details: Compound concentration 1000.0 nM
[32] = target: Activin receptor type-1B (Homo sapiens) (UniProt P36896); details: Compound concentration 1000.0 nM
[33] = target: Serine/threonine-protein kinase N1 (Homo sapiens) (UniProt Q16512); details: Compound concentration 1000.0 nM
[34] = target: Tyrosine-protein kinase ABL2 (Homo sapiens) (UniProt P42684); details: Compound concentration 1000.0 nM
[35] = target: Ribosomal protein S6 kinase alpha-2 (Homo sapiens) (UniProt Q15349); details: Compound concentration 1000.0 nM
[36] = target: D(1A) dopamine receptor (Homo sapiens) (UniProt P21728); details: Compound concentration 10.0 uM
[37] = target: SRSF protein kinase 2 (Homo sapiens) (UniProt P78362); details: Compound concentration 1000.0 nM
[38] = target: 5-hydroxytryptamine receptor 1B (Homo sapiens) (UniProt P28222); details: Compound concentration 10.0 uM
[39] = target: Casein kinase I isoform gamma-2 (Homo sapiens) (UniProt P78368); details: Compound concentration 1000.0 nM

Sequence of Maternal embryonic leucine zipper kinase (Homo sapiens) (Q14680 whole entry, looked up): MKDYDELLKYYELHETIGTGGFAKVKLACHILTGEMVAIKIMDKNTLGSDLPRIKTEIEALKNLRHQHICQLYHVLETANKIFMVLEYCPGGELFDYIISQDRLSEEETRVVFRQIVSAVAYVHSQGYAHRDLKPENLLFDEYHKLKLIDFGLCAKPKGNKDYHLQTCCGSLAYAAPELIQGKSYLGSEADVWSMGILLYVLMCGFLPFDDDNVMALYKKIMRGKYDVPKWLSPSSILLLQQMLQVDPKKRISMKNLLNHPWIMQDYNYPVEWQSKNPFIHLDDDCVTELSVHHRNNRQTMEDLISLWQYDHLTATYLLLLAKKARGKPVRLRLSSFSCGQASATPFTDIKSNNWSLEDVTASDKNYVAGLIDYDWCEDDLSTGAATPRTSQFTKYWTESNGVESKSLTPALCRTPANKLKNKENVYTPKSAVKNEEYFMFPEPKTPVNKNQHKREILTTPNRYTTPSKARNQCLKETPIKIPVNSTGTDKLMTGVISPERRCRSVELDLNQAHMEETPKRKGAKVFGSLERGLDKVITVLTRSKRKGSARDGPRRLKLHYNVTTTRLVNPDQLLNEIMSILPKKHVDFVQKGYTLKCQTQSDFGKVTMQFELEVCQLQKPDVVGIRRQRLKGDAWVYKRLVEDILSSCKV
Sequence of Activin receptor type-1B (Homo sapiens) (P36896 whole entry): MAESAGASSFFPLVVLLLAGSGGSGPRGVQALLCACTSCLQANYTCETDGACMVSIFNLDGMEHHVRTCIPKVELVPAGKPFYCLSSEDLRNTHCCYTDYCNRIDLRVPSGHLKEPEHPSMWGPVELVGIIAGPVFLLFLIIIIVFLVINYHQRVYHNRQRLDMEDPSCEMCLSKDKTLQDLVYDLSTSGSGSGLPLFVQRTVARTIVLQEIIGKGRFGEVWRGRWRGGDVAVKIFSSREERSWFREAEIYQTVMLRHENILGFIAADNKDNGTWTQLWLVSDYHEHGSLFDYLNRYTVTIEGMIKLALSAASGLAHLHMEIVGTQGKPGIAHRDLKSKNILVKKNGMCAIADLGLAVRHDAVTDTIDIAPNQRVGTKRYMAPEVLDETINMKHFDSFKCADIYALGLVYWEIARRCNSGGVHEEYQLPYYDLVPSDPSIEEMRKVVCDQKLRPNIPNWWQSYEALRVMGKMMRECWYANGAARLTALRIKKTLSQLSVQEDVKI
Sequence of Receptor tyrosine-protein kinase erbB-2 (Homo sapiens) (P04626 whole entry): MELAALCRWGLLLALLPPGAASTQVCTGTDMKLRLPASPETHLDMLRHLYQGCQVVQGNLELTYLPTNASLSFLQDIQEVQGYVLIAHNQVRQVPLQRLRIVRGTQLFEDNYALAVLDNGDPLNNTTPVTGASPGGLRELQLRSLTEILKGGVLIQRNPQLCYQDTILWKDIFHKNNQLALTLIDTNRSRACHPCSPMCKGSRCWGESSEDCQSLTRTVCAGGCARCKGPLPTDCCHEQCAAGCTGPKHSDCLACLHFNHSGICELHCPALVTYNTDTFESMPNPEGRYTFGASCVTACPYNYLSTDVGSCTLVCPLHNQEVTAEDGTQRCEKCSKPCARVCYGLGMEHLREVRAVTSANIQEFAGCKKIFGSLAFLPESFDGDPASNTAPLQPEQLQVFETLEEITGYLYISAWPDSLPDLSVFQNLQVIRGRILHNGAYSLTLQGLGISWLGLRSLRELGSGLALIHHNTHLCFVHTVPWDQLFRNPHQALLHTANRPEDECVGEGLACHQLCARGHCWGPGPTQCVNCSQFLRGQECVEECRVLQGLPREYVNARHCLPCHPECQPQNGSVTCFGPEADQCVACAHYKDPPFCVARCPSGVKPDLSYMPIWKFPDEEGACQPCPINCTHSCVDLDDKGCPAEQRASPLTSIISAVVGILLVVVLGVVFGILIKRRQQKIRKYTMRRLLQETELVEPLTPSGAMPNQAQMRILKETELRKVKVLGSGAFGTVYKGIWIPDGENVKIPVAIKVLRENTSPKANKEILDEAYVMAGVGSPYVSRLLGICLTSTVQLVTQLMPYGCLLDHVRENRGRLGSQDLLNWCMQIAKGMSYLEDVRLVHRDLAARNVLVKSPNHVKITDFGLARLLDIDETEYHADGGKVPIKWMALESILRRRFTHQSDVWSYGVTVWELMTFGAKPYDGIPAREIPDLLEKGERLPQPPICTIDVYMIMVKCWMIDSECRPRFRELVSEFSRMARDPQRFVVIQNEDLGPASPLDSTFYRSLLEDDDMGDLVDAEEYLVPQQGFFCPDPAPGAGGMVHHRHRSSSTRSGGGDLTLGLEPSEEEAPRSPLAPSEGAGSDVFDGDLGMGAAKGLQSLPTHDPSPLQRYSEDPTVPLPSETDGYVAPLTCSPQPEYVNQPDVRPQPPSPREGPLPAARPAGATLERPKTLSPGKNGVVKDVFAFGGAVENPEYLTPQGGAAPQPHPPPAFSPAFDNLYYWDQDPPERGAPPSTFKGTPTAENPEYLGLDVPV
Sequence of Serine/threonine-protein kinase ICK (Homo sapiens) (Q9UPZ9 whole entry): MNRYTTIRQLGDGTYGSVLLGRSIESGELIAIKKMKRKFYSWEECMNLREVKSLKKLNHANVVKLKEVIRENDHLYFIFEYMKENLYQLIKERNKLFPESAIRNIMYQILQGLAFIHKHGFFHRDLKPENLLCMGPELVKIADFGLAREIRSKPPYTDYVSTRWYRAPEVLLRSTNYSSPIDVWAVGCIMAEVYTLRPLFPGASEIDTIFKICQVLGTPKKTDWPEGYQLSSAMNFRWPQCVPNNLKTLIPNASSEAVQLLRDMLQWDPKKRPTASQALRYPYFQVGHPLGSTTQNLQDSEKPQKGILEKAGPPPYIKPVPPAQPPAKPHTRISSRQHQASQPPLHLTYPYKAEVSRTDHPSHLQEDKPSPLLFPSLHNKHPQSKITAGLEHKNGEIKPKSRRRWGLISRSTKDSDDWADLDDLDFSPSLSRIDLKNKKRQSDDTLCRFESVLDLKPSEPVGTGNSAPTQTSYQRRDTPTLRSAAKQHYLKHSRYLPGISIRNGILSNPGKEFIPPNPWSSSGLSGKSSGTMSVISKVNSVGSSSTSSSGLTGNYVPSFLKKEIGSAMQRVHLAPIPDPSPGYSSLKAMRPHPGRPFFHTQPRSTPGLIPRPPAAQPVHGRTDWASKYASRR
Sequence of 5-hydroxytryptamine receptor 2B (P41595 whole entry): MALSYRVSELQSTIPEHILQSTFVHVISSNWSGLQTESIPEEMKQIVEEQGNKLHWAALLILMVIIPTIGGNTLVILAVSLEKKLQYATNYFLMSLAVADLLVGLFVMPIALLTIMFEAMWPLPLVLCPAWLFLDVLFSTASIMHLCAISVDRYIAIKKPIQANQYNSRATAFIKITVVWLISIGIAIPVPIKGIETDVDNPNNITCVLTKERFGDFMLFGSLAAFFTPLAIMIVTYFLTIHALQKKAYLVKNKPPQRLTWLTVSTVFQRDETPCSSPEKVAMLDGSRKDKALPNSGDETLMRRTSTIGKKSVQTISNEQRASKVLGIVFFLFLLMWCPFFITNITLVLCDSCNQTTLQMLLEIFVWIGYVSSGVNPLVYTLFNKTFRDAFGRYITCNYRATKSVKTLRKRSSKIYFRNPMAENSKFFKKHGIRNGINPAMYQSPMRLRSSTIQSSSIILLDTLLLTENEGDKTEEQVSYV
Sequence of Tyrosine-protein kinase ABL2 (Homo sapiens) (P42684 whole entry): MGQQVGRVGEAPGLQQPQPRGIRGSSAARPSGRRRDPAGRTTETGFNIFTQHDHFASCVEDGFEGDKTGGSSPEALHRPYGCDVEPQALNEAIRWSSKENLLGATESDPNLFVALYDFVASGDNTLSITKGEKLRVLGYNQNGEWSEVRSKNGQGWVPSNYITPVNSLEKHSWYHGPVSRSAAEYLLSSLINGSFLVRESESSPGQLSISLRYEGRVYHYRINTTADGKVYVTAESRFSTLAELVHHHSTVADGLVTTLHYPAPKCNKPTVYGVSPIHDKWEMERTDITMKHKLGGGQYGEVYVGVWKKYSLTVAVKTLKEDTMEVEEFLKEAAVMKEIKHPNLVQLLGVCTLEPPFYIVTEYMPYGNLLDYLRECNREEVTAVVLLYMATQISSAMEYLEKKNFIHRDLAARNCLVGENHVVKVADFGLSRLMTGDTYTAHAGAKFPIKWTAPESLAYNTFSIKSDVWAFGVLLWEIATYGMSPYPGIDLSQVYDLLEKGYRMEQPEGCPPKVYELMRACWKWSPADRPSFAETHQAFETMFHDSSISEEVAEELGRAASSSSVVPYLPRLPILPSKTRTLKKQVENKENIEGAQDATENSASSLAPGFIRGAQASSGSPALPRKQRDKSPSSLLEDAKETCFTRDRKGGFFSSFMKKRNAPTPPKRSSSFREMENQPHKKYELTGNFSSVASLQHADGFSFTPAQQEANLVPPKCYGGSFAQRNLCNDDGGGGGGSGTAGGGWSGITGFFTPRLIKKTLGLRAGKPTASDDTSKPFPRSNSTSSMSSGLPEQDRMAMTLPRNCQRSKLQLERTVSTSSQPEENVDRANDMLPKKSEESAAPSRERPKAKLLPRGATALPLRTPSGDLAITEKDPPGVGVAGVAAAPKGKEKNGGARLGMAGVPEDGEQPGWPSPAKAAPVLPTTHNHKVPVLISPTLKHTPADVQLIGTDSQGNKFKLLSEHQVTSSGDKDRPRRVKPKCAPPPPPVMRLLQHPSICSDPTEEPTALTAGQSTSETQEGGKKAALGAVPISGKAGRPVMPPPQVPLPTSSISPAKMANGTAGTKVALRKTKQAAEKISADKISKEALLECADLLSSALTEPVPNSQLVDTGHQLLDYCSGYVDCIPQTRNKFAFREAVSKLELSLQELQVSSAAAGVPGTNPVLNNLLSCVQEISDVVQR
Sequence of Casein kinase I isoform alpha-like (Homo sapiens) (Q8N752 whole entry, canonical isoform): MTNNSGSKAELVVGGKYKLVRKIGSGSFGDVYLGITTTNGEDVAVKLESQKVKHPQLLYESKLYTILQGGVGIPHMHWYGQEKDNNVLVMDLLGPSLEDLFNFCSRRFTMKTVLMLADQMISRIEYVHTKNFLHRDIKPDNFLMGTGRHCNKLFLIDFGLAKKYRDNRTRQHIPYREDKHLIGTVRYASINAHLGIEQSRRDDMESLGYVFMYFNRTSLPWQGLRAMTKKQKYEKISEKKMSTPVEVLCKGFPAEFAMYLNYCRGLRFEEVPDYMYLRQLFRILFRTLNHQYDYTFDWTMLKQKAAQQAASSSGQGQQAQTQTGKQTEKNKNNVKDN

Compound	residual activity [1] [%]	residual activity [2] [%]	inhibition [3] [%]	residual activity [4] [%]	residual activity [5] [%]	inhibition [6] [%]	residual activity [7] [%]	residual activity [8] [%]	residual activity [9] [%]	residual activity [10] [%]	residual activity [11] [%]	residual activity [12] [%]	residual activity [13] [%]	residual activity [14] [%]	residual activity [15] [%]	residual activity [16] [%]	residual activity [17] [%]	residual activity [18] [%]	residual activity [19] [%]	inhibition [20] [%]	further results
FC(F)(F)c1ccc2c(c1)nc(-c1cccnc1)n2C1CC1 [MSD-CYP11B2-Negative-control]	100	94	43.3	100	100	-1.84	100	100	100	91	100	87	100	100	100	100	100	81	100	79.7	residual activity [21]: 100%; residual activity [22]: 100%; residual activity [23]: 100%; residual activity [24]: 100%; residual activity [25]: 99%; residual activity [26]: 100%; residual activity [27]: 100%; residual activity [28]: 100%; residual activity [29]: 100%; residual activity [30]: 100%; residual activity [31]: 100%; residual activity [32]: 98%; residual activity [33]: 100%; residual activity [34]: 100%; residual activity [35]: 100%; inhibition [36]: -3.97%; residual activity [37]: 93%; inhibition [38]: 8.83%; residual activity [39]: 100%
CC(C)(O)c1cncc(-c2nc3ccc(F)cc3n2C2CC2)c1 [MSD-CYP11B2]	100	100	76.4	100	99	-8.65	100	100	100	100	100	100	100	100	100	100	100	86	100	63.1	residual activity [21]: 100%; residual activity [22]: 100%; residual activity [23]: 100%; residual activity [24]: 97%; residual activity [25]: 93%; residual activity [26]: 100%; residual activity [27]: 100%; residual activity [28]: 100%; residual activity [29]: 92%; residual activity [30]: 100%; residual activity [31]: 100%; residual activity [32]: 99%; residual activity [33]: 100%; residual activity [34]: 100%; residual activity [35]: 100%; inhibition [36]: 0.87%; residual activity [37]: 86%; inhibition [38]: 16.8%; residual activity [39]: 100%
